Results from the supplement of paper PMC4862054.
Values joined by “and” are separate entries in the source; they are usually repeats but may differ in a detail not shown here. Identical values can stand only once.

Key:
[1] = system: BT-474; test: normalised viability (% of control), CellTiter-Blue; higher = more viable cells (about 100 = DMSO control); conditions: incubation time: 72 h
How it was run: (§1)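 The reported quantity is normalised viability at a single listed concentration of the series. Compound in 5 µl medium was pre-dispensed into 384-well plates and 20 µl of breast cancer cell suspension was added for 72 h. A 2 h, 37 °C CellTiter-Blue step (2.5 µl) preceded fluorescence reading at 560/590 nm, and plates were normalised to vehicle (100) and a positive kill control (0).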

[2] = system: CAL-148; test: as above; conditions: incubation time: 72 h
How it was run: as §1

[3] = system: CAL-85-1; test: as above; conditions: incubation time: 72 h
How it was run: as §1

[4] = system: HCC1599; test: as above; conditions: incubation time: 72 h
How it was run: as §1

[5] = system: Hs578T; test: as above; conditions: incubation time: 72 h
How it was run: as §1

[6] = system: MDA-MB-231; test: as above; conditions: incubation time: 72 h
How it was run: as §1

[7] = system: MDA-MB-468; test: as above; conditions: incubation time: 72 h
How it was run: as §1

[8] = system: CAL-148; test: as above; conditions: incubation time: 72 h; remark: listed apart in the source
How it was run: as §1

[9] = system: CAL-85-1; test: as above; conditions: incubation time: 72 h; remark: listed apart in the source
How it was run: as §1

[10] = system: HCC1143; test: as above; conditions: incubation time: 72 h
How it was run: as §1

[11] = system: SK-BR-3; test: as above; conditions: incubation time: 72 h
How it was run: as §1

[12] = system: BT-474; test: normalised viability (% of control), CellTiter-Blue; higher = more viable cells (100 = DMSO, 0 = benzethonium chloride kill control); conditions: 1 nM; incubation time: 72 h
Protocol: (§2)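 DSRT, CellTiter-Blue viability, 72 h incubation. Signal is normalised to DMSO and benzethonium chloride controls. Value is the normalised response at dose 1.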

[13] = system: BT-549; test: as above; conditions: 1 nM; incubation time: 72 h
Protocol: as §2

[14] = system: CAL-120; test: as above; conditions: 1 nM; incubation time: 72 h
Protocol: as §2

[15] = system: CAL-148; test: as above; conditions: 1 nM; incubation time: 72 h
Protocol: as §2

[16] = system: CAL-51; test: as above; conditions: 1 nM; incubation time: 72 h
Protocol: as §2

[17] = system: CAL-85-1; test: as above; conditions: 1 nM; incubation time: 72 h
Protocol: as §2

[18] = system: DU-4475; test: as above; conditions: 1 nM; incubation time: 72 h
Protocol: as §2

[19] = system: HCC1143; test: as above; conditions: 1 nM; incubation time: 72 h
Protocol: as §2

[20] = system: HCC1599; test: as above; conditions: 1 nM; incubation time: 72 h
Protocol: as §2

[21] = system: HCC1937; test: as above; conditions: 1 nM; incubation time: 72 h
Protocol: as §2

[22] = system: HDQ-P1; test: as above; conditions: 1 nM; incubation time: 72 h
Protocol: as §2

[23] = system: Hs578T; test: as above; conditions: 1 nM; incubation time: 72 h
Protocol: as §2

[24] = system: MDA-MB-231; test: as above; conditions: 1 nM; incubation time: 72 h
Protocol: as §2

[25] = system: MDA-MB-436; test: as above; conditions: 1 nM; incubation time: 72 h
Protocol: as §2

[26] = system: MDA-MB-453; test: as above; conditions: 1 nM; incubation time: 72 h
Protocol: as §2

[27] = system: MDA-MB-468; test: as above; conditions: 1 nM; incubation time: 72 h
Protocol: as §2

[28] = system: MFM-223; test: as above; conditions: 1 nM; incubation time: 72 h
Protocol: as §2

[29] = system: SK-BR-3; test: as above; conditions: 1 nM; incubation time: 72 h
Protocol: as §2

[30] = system: MDA-MB-453; conditions: 72 h
How it was run: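 Compound dissolved in 5 µl medium was placed in 384-well plates before 20 µl of breast cancer cell suspension was added, and the plates were incubated for 72 h. Cells then received 2.5 µl CellTiter-Blue for 2 h at 37 °C, and fluorescence was read at 560/590 nm. EC50 values come from percent-inhibition dose-response fits that were censored at the highest concentration, with plates normalised to vehicle and a positive kill control and rows with a zero drug sensitivity score excluded.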

SMILES	normalised viability ([1]; 10000 nM)	normalised viability ([2]; 100 nM)	normalised viability ([3]; 100 nM) [%]	normalised viability ([4]; 10000 nM)	normalised viability ([5]; 10000 nM)	normalised viability ([6]; 10000 nM)	normalised viability ([7]; 10000 nM)	normalised viability ([8]; 3 nM)	normalised viability ([9]; 3 nM)	normalised viability ([10]; 10 nM)	normalised viability ([11]; 10 nM)	normalised viability [13]	normalised viability [14]	normalised viability [15]	normalised viability [16]	normalised viability [17]	normalised viability [18]	normalised viability [19]	normalised viability [20]	normalised viability [21]	further results
CC(C)(C#N)c1cc(Cn2cncn2)cc(C(C)(C)C#N)c1 [Anastrozole]	122%	98.1%	91.8	104%	107%	106%	95.2%	93.3%	93.4%	73.5%	95.1%	122%	88.8%	99%	108%	94.1%	94%	83.4%	107%	94.6%	normalised viability [12]: 73.5%; normalised viability [22]: 101%; normalised viability [23]: 97.2%; normalised viability [24]: 91.7%; normalised viability [25]: 99%; normalised viability [26]: 98.4%; normalised viability [27]: 97.9%; normalised viability [28]: 98.8%; normalised viability [29]: 97.7%
Cc1ccc(NC(=O)c2ccc(CN3CCN(C)CC3)cc2)cc1Nc1nccc(-c2cccnc2)n1 [Imatinib]	104% and 96.8%	85.4% and 91.8%	90.9	97.8% and 103%	95.3% and 109%	107% and 104%	103% and 99.3%	80.4% and 92.6%	91.5% and 91.4%	79% and 81.2%	97.5% and 99.9%	104% and 116%	88.5% and 91%	86.2% and 97.6%	99.8% and 100%	87.5% and 85.1%	99% and 111%	88.9% and 93%	109% and 104%	81.9% and 101%	EC50, CellTiter-Blue viability [30]: 4.54 µM; normalised viability [23]: 99.3% and 102%; normalised viability [24]: 90.8% and 95.5%; normalised viability [25]: 90.1% and 106%; normalised viability [26]: 106% and 102%; normalised viability [27]: 102% and 105%; normalised viability [28]: 93.1% and 97.1%; normalised viability [29]: 89.3% and 102%
Cc1cc2c(C(C)C)c(O)c(O)c(C=O)c2c(O)c1-c1c(C)cc2c(C(C)C)c(O)c(O)c(C=O)c2c1O [Gossypol]	–	–	–	–	–	–	–	–	–	–	–	–	–	–	–	–	–	–	–	–	normalised viability ([1]; 100000 nM): 20.4%; normalised viability ([2]; 1000 nM): 107%; normalised viability ([3]; 1000 nM): 87.7%; normalised viability ([4]; 100000 nM): 4.74%; normalised viability ([5]; 100000 nM): 1.54%; normalised viability ([6]; 100000 nM): 5.74%; normalised viability ([7]; 100000 nM): 2.31%; normalised viability ([8]; 30 nM): 94.2%; normalised viability ([9]; 30 nM): 101%; normalised viability ([10]; 100 nM): 115%; normalised viability ([11]; 100 nM): 106%
